In patent US9555061B2, “Synthesis and analysis of compounds capable of inducing differentiation of human mesenchymal stems cells into hepatocytes” (National University Corporation Torrori University, priority 2011, dated 2017):

How the values were obtained:
Format in all cases: cell-based, human
UE7T-13 cells = assay: Hepatocyte differentiation induction, RT-PCR of albumin (UE7T-13); details: 15 μM
Procedure: After 24 h, the medium was changed to a medium containing IC-2, etc. After that, the medium was changed twice a week, and the cells were subcultured once a week to adjust a cell number at 9.0×10^3 cells/cm^2. Total RNA was collected at days 8, 16, and 24 after the initiation of the induction.
Total RNA was extracted with a TRIzol reagent. After the extraction, in order to completely remove DNA, deoxyribonuclease was added and the mixture was incubated at 37° C. for 1 h. A SuperScript First-Stand Synthesis System for RT-PCR (Invitrogen) was used for reverse transcription, and an oligo dT primer was used to convert 1 μg of RNA into cDNA. To perform a PCR, the cDNA was diluted by 5 times and 1 μl of the cDNA was used. A recombinant Taq DNA polymerase (Invitrogen) was used for the PCR. With regard to primers for human albumin, 5′-[…]-3′ (SEQ ID NO: 1) and 5′-[…]-3′ (SEQ ID NO: 2) were used. The PCR involved 1 cycle of 95° C. for 2 min and 35 cycles of 95° C. for 30 sec, 58° C. for 30 sec, and 72° C. for 30 sec. Human glyceraldehyde 3-phosphate dehydrogenase (GAPDH) was used as an internal control. With regard to GAPDH primers, 5′-[…]-3′ (SEQ ID NO: 3) and 5′-[…]-3′ (SEQ ID NO: 4) were used. The PCR involved 1 cycle of 95° C. for 2 min and 20 cycles of 95° C. for 30 sec, 60° C. for 30 sec, and 72° C. for 30 sec. […]

[1] = system: bone marrow-derived mesenchymal stem cells; assay: RT-PCR of albumin in sorted bone marrow-derived mesenchymal stem cells; details: 45 μM
Procedure: Cells were seeded on a 6-well plate at a cell density of 1.8×10^4 cells/cm^2. This day was designated as day 0. At day 1 corresponding to the next day, the medium was changed to a medium containing IC-2 (at a final concentration of 25, 35, or 45 μM) or 0.1% DMSO. At day 4, the medium was changed in a manner similar to that at day 1, and at day 8, the cells were reseeded and subcultured at a cell density of 1.8×10^4 cells/cm^2. After that, the medium was replaced twice during 8 days, and the cells were subcultured every 8 days. Then, the similar operation was carried out until day 24. At days 8, 16, and 24 after the initiation of the induction, TRIzol (Invitrogen) was used to extract total RNA according to the attached instruction. After the extraction, deoxyribonuclease (Nippon Gene) was added, and the mixture was incubated at 37° C. for 30 min to remove DNA. In a reverse transcription reaction, SuperScriptII Reverse Transcriptase (Invitrogen) and Oligo(dT)15 primer were added to 1 μg of RNA to convert it into cDNA. In a RT-PCR method, the cDNA was diluted by 5 times. Next, 1 μl of the cDNA was used as a template. Then, rTaq DNA polymerase (TOYOBO) was used to amplify the cDNA. MQ water was used as a negative control. cDNA from Huh-7 or UE7T-13 cells was used as a positive control.
In order to determine hepatocyte differentiation markers, levels of expression of albumin were measured. […]

[2] = system: clinical specimen-derived mesenchymal stem cells; assay: RT-PCR of hepatocyte differentiation marker in clinical specimen-derived mesenchymal stem cells; details: hexachlorophene 4 μM, HC-2 20 μM, PN-3-13 20 μM, IC-2 40 μM
Procedure: A fresh bone marrow aspirate was collected under informed consent from a patient (a person) with osteoarthritis who underwent replacement arthroplasty at the Department of Orthopedic Surgery, Tottori University Hospital. This aspirate was subjected to density gradient centrifugation using ficoll (Amersham Biosciences) to separate bone marrow mononuclear cells (FIG. 31). These bone marrow mononuclear cells were suspended in 1 ml of Hanks' balanced salt solution (HBSS, Gibco, Life Technologies Corp.) supplemented with a 100-fold diluted APC-labeled anti-CD90 antibody, a 407-fold diluted PE-labeled anti-CD271 antibody, and 2% fetal bovine serum (FBS, Defined, Thermo Fisher Scientific Inc.), and were stained on ice for 30 min. A flow cytometer (MoFlo XDP, Beckman Coulter Inc.) was used to selectively separate mesenchymal stem cells. The resulting cells were cultured in Dulbecco's Modified Eagle's Medium (Low Glucose, Gibco, Life Technologies Corp.) containing 20% FBS, 100 U/ml penicillin, […] streptomycin (Nacalai Tesque), and 20 ng/ml basic fibroblast growth factor (TRANS GENIC INC., Ltd.) on a 35-mm dish under conditions at 37° C. and 5% CO2. The medium was changed every 4 days. After colonies were formed, the cells were detached using a 0.025% trypsin/1 mM EDTA solution (Nacalai Tesque), split on a 100-mm dish, and cultured under conditions at 37° C. and 5% CO2. Then, the cells which were kept 70 to 80% confluent were detached using trypsin treatment. These cells in one dish were divided into four dishes for passage.
Cells were seeded on a 6-well plate at a cell density of 1.8×10^4 cells/cm^2. This day was designated as day 0. At day 1 corresponding to the next day, the medium was changed to a medium containing any one of hexachlorophene (at a final concentration of 4 μM), HC-2 (at a final concentration of 20 μM), PN-3-13 (at a final concentration of 20 μM), IC-2 (at a final concentration of 40 μM), and 0.1% DMSO. […]

[3] = system: clinical specimen-derived mesenchymal stem cells; assay: Immunofluorescence staining in clinical specimen-derived mesenchymal stem cells; details: day 8; PN-3-13 20 μM, IC-2 40 μM
Procedure: A cover glass that had been sterilized with 100% ethanol was placed on a 12-well plate. Cells were seeded on the cover glass at a cell density of 1.8×10^4 cells/cm^2. This day was designated as day 0. At day 1 corresponding to the next day, the medium was changed to a medium containing HC-2 (at a final concentration of 20 μM), PN-3-13 (at a final concentration of 20 μM), IC-2 (at a final concentration of 40 μM), or 0.1% DMSO. At day 4, the medium was changed in a manner similar to that at day 1. At day 8, the culture medium was removed and the cells were washed twice with PBS. Then, in order to perform immunostaining of albumin, the cells were fixed for 20 min with 4% paraformaldehyde (Nacalai Tesque) containing 8% sucrose (Wako Pure Chemical Industries, Ltd.). For immunostaining of C/EBPα or CYP1A1, the cells were fixed for 20 min with 4% paraformaldehyde. After that, the cells were permeated with 0.2% Triton X-100 (Wako Pure Chemical Industries, Ltd.) for 10 min and were then blocked in 3% BSA (Nacalai Tesque) at room temperature for 30 min without shaking.
After the primary antibody reaction, the cells were washed with 0.1% BSA/PBS. […] The cells were incubated with each antibody, and were kept in a dark condition at room temperature for 1 h to carry out a secondary antibody reaction. Their nuclei were stained with DAPI (Cell Signaling Technology Inc.). […]

(6S,9aS)-6-phenyl-8-naphthalen-1-ylmethyl-4,7-dioxo-hexahydro-pyrazino[1,2-a]pyrimidine-1-carbocylic acid benzylamide [IC-2]
levels of the albumin expression (UE7T-13 cells): particularly high
albumin expression compared with 0.1% DMSO [1]: remarkable increase
expression of albumin [2]: induced
levels of expression of albumin, C/EBPα, and CYP1A1 compared with negative control (0.1% DMSO) [3]: apparently increased
